{"source": "patent US12459931B2", "about": "“Benzothiophene derivative regulator, preparation method therefor and use thereof” (Shanghai Hansoh Biomedical Co., Ltd., priority 2019, dated 2025)", "key": {"5-HT2A receptor": {"target": "5-HT2A receptor (Homo sapiens (Human), UniProt P28223)", "sequence (P28223 whole entry)": "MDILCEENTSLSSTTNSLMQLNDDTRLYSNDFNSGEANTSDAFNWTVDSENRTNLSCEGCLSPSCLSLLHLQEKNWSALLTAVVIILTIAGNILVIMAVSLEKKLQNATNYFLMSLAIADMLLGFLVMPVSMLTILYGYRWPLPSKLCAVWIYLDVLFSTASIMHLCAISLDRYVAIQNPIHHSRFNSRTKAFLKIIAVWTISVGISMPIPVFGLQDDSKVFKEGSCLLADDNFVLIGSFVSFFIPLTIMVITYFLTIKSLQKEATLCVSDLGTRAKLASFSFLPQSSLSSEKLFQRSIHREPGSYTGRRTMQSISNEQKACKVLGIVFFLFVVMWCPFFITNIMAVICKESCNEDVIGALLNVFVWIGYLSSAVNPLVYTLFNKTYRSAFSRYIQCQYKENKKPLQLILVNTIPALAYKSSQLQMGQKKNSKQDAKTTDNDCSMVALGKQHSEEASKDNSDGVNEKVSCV", "assay": "Effect on calcium ion mobility in cells stably expressing 5-HT2A receptors (Flp-In-CHO-5HT2A, FLIPR)", "type": "cell-based", "conditions": "Flp-In-CHO-5HT2A cells, 5HT as agonist", "procedure": "To determine the inhibitory effect of the compounds on 5-HT2A receptor.\nProbenecid and BSA were added fresh on the day of the experiment.\nThe calcium signal values were determined by FLIPR. […] The percent inhibition rate and ten-point concentration data were fitted to the parametric nonlinear logistic equation by using GraphPad prism to calculate the IC50 values of the compound."}, "Rats F344": {"tested_on": "Rats F344", "assay": "Pharmacodynamic model of active escape experiment in rats", "type": "in vivo", "conditions": "oral, dose 1 mg/kg, one hour before the test", "procedure": "V. Pharmacodynamic Model of Active Escape Experiment in Rats\nTo evaluate the anti-schizophrenic effect of the compounds using the pharmacodynamic model of the active escape experiment in rats.\n4. Formulation of the Vehicle and Compounds: • 4.1 Vehicle (0.5% CMC-Na+1% Tween80)\nA certain mass (such as 1.0 g) of CMC-Na was weighed into a glass bottle, a certain volume (such as 200 mL) of purified water was added, and the resulting mixture was stirred to disperse evenly. 1% (v/v) Tween 80 was added according to the solution volume, and the resulting mixture was stirred overnight to obtain a homogeneous clear solution, which was stored at 2 to 8° C. for later use. • 4.2 Formulation of the compounds: […]\nA formula amount of the compound was weighed, followed by the addition of a formula volume of 0.5% CMC-Na+1% Tween 80 solution. The compound solution was formulated before the administration, stored at 2 to 8° C., and used within 4 days.\nThe day before the compound screening test, a baseline test was performed. The test procedure was the same as 5.1.1 to 5.1.3, and the number of the baseline test was 20. The animals whose number of avoids reached 16 (80%) were grouped according to the number of avoids, 10 animals per group. The first group was administered with the vehicle orally, and the other groups were administered with the corresponding test compounds according to the experimental design. • 5.3 Compound screening test\nThe compound was administered orally (5 mL/kg) one hour before the test;\nThe test procedure was the same as 5.1.1 to 5.1.4, and the number of the test was 20.\nThe following data was collected by the software for data analysis: • Number of avoids of the animal; • Number of escape failures of the animal; • Escape latency of the animal;\nAll measurement data were expressed as mean±standard error (Mean±SEM), and analyzed by Graphpad 6 statistical software. The difference was considered to be significant when p<0.05."}, "[1]": {"assay": "Toxicity test by repeated intragastric administration for 14 days in SD rats (with toxicokinetics)", "type": "in vivo, Sprague-Dawley (SD) rats", "conditions": "both sexes, Sprague-Dawley, rat, in vivo, po; SD rats, intragastric once a day for two weeks; read-out: Maximum tolerated dose (MTD)", "excerpt": "(§1) VI. Toxicity Test by Repeated Intragastric Administration for 14 Days in SD Rats\n(§2) The objective of this study was to investigate the possible toxicity of compounds after repeated intragastric administration to SD rats for 14 days. • 6.2 Experimental materials and instruments: • 6.2.1 Test compound\n(§3) Test compound 1: the compound of Example 42. • 6.2.2 Vehicle:\n(§4) Name: 0.5% CMC-Na (1% tween80) aqueous solution • 6.2.3 Animal information:\n(§5) Species & strain: Sprague-Dawley (SD) rats\n(§6) […] were divided into […] according to their sex and body weight. 40 rats were used for toxicology study (groups 1 to 4, 5 rats/sex/group), and 24 rats were used for toxicokinetics study (groups 5 to 8, 3 rats/sex/group). The animals in groups 1 and 5 were intragastrically administered with 0.5% CMC-Na (1% tween80) aqueous solution as the vehicle control groups. The animals in groups 2 and 6, 3 and 7, 4 and 8 were intragastrically administered with the compound of Example 42 at a dose of 2, 10 and 30 mg/kg, respectively. The animals were administered once a day for 14 consecutive days. The administration volumes were 10 mL/kg. During the experiment, clinical observation, body weight, food intake, body temperature, clinicopathological indicators (blood cell count, coagulation function, blood biochemistry) and toxicokinetics were monitored. All animals were euthanized on D15. During the experiment, the animals in groups 1 to 4 were subjected to gross anatomical observation. Histopathological examination was carried out on abnormal tissue and brain, kidney, adrenal gland, lung and bronchi, prostate, testis and epididymis. • 6.4 List of test data • 6.4.1 Dying/death"}, "SD rats": {"tested_on": "SD rats", "assay": "Toxicity test by repeated intragastric administration for 14 days in SD rats (with toxicokinetics)", "type": "in vivo, Sprague-Dawley (SD) rats", "excerpt": "as §1, §2, §3, §4, §5, §6"}, "[2]": {"assay": "Stability assay in liver microsome in vitro", "type": "in vitro ADME, Mouse", "procedure": "IV. Stability Assay in Liver Microsome In Vitro\nTo evaluate the metabolic stability of the compounds of the present invention in liver microsome in vitro.\nFormulation of the working solution of the compound: 2 μL of the stock solution of the compound was added to 998 μL of phosphate buffer, and the final concentration was 20 μM.\nFormulation of the working solution of the control compound (7-hydroxycoumarin): The formulation was consistent with that of the compound. • 3.2. Formulation of the working solution of liver microsome\n78.1 μL of 20 mg/mL microsome was diluted to 2.5 mL with 100 mM phosphate buffer and mixed well, and the final concentration was 0.625 mg/mL. • 3.3. Formulation of NADPH and UDPGA\n33.3 mg of NADPH and 25.8 mg of UDPGA were weighed respectively, followed by the addition of 2 mL of 100 mM phosphate buffer. The final concentrations were 20 mM. • 3.4. Formulation of the channel-forming reagent (Alamethicin)\n1 mg of Alamethicin was weighed, to which 200 μL of DMSO was added to obtain a 5 mg/mL solution. 10 μL of this solution was added to 990 μL of phosphate buffer (pH 7.4), and the final concentration was 50 μg/mL. • 3.5. Formulation of the reaction stop solution\nStop solution: Cold acetonitrile containing 100 ng/mL labetalol hydrochloride and 400 ng/mL tolbutamide was used as internal standards, and stored in a refrigerator at 2 to 8° C. • 3.6. Incubation procedure\n400 μL of the formulated liver microsome, 25 μL of the working solution of the compound […] and 25 μL of Alamethicin (50 μg/mL) were added to a 96-well plate successively, which was then pre-incubated at 37° C. for 10 min. 50 μL of the formulated NADPH/UDPGA was added to initiate the reaction, and the plate was incubated at 37° C. The total volume of the reaction system was 500 μL. The final contents of the components were as follows:\n[…] The resulting sample was centrifuged at 4000 g for 10 min, and the supernatant was collected for LC-MS/MS analysis."}, "[3]": {"conditions": "SD rats, 2, 10 or 30 mg/kg, two weeks"}}}
{"molecule": "O=C(N[C@H]1CC[C@H](CCN2CCN(c3cccc4sccc34)CC2)CC1)C1(O)CC1", "note": "[Example 42, N-(Trans-4-(2-(4-(benzo[b]thiophen-4-yl)piperazin-1-yl)ethyl)cyclohexyl)-1-hydroxycyclopropane-1-carboxamide]", "values": [{"measurement": "IC50", "setting": "5-HT2A receptor", "value": 3.42, "unit": "nM"}, {"measurement": "CAR value", "setting": "Rats F344", "value": 46.5, "unit": "%"}, {"measurement": "EF", "setting": "Rats F344", "value": 0, "unit": "%"}, {"measurement": "MTD at 14 days", "setting": "[1]", "value": 30, "unit": "mg/kg"}, {"measurement": "Main target organs for toxicity", "setting": "SD rats; [3]", "value": "the lungs and adrenal glands"}, {"measurement": "Main toxic responses: blood counts", "setting": "SD rats; [3]", "value": "WBC, Lymph, Retic and PLT are decreased"}, {"measurement": "Main toxic responses: body weight, food intake and body temperature", "setting": "SD rats; [3]", "value": "body weight, food intake and body temperature are decreased"}, {"measurement": "Main toxic responses: coagulation function", "setting": "SD rats; [3]", "value": "FIB wis decreased, and APTT is shortened"}, {"measurement": "Accumulation", "setting": "SD rats; SD rats, 14 days intragastric, 2, 10 or 30 mg/kg", "value": "no accumulation"}, {"measurement": "Average exposure versus dose", "setting": "SD rats; SD rats, female and male, D1 and D14", "value": "increased with the increase of the dose"}]}
{"molecule": "CC(C)(O)C(=O)N[C@H]1CC[C@H](CCN2CCN(c3cccc4sccc34)CC2)CC1", "note": "[Example 41, N-(Trans-4-(2-(4-(benzo[b]thiophen-4-yl)piperazin-1-yl)ethyl)cyclohexyl)-2-hydroxy-2-methylpropanamide]", "values": [{"measurement": "half-life at 1 μM", "setting": "[2]; CD-1, liver microsomes, pH 7.4, Mouse liver microsome 0.5 mg/mL, compound 1 μM, NADPH/UDPGA, read-out: Half life (t1/2)", "value": 2.72, "unit": "h"}, {"measurement": "microsomal CLint at 1 μM", "setting": "[2]; CD-1, liver microsomes, pH 7.4, Mouse liver microsome, note: Slow <8.8, Rapid >48.0, read-out: Intrinsic clearance rate (CLint)", "value": 21.3, "unit": "µL/min/mg"}, {"measurement": "Remaining (%, 120 min)", "setting": "[2]; Mouse liver microsome, 120 min", "value": 80.6, "unit": "%"}]}
